The assay concerns the target T1, H+/K+-ATPase (Sus scrofa, UniProt P19156).
T1 construct: reaction buffer solution (60 mmol/l Tris-HCl buffer solution, pH 7.4) containing hog gastric vesicle; from tissue; host or cells: hog stomach (gastric vesicles, by centrifugation after Rabon et al. 1988)
Kind of assay: Inhibition of proton pump (H+/K+-ATPase) activity in hog gastric vesicles. The assay is classed as biochemical. The note with it: K+ specific H+/K+-ATPase activity, pH 7.4, 37° C. for 40 minutes, malachite green. The method, then: 1) Preparation of Gastric Vesicles
Gastric vesicles were prepared from hog stomach by centrifugation (Edd C. Rabon et al., Preparation of Gastric H^+,K^+-ATPase, Methods in enzymology, vol. 157 Academic Press Inc., (1988), pp. 649-654). The protein contents of the prepared gastric vesicles were quantified with a Bicinchoninic Acid (BCA) kit.
2) Measurement of Effect of Inhibiting Proton Pump (H^+/K^+-ATPase) Activity
The effect of inhibiting proton pump activity by the compound of the present invention was measured in a 96-well plate. In this experiment, K^+ specific H^+/K^+-ATPase activity was calculated based on the difference between H^+/K^+-ATPase activity in the presence of K^+ ions and H^+/K^+-ATPase activity in the absence of K^+ ions. In the 96-well plate, to negative and positive control groups, 0.5% dimethylsulfoxide (DMSO) in buffer was added, and to the test groups, the compound of the present invention was added. All the analyses were conducted at room temperature with the reaction volume of 100 μl. To a reaction buffer solution (60 mmol/l Tris-HCl buffer solution, pH 7.4) containing hog gastric vesicle, DMSO and each concentration of compound were added, and then, 10 μl of a 10 mmol/l adenosine triphosphate tris buffer solution (60 mmol/l Tris-HCl buffer solution, pH 7.4) was added to initiate an enzyme reaction. The enzyme reaction was conducted at 37° C. for 40 minutes, 50 μl of a malachite green solution (0.12% malachite green solution, 5.8% ammonium molybdate and 11% tween 20 were mixed at a ratio of 100:67:2 in 6.2 N sulfuric acid) was added to stop the reaction, and 50 μl of 15.1% sodium citrate was added. During the reaction, the amount of monophosphate (Pi) was measured at 570 nm using micro plate reader (FLUOstar Omega, BMG Company). Inhibition rate (%) was measured from the activity values of the control groups and the activity values of various concentrations of the test compound, and IC50 of the test compound was calculated from each % inhibition value of the compound using Logistic 4-parameter function of Sigmaplot 8.0 program.
T1 sequence (P19156 2-1034 limits assumed): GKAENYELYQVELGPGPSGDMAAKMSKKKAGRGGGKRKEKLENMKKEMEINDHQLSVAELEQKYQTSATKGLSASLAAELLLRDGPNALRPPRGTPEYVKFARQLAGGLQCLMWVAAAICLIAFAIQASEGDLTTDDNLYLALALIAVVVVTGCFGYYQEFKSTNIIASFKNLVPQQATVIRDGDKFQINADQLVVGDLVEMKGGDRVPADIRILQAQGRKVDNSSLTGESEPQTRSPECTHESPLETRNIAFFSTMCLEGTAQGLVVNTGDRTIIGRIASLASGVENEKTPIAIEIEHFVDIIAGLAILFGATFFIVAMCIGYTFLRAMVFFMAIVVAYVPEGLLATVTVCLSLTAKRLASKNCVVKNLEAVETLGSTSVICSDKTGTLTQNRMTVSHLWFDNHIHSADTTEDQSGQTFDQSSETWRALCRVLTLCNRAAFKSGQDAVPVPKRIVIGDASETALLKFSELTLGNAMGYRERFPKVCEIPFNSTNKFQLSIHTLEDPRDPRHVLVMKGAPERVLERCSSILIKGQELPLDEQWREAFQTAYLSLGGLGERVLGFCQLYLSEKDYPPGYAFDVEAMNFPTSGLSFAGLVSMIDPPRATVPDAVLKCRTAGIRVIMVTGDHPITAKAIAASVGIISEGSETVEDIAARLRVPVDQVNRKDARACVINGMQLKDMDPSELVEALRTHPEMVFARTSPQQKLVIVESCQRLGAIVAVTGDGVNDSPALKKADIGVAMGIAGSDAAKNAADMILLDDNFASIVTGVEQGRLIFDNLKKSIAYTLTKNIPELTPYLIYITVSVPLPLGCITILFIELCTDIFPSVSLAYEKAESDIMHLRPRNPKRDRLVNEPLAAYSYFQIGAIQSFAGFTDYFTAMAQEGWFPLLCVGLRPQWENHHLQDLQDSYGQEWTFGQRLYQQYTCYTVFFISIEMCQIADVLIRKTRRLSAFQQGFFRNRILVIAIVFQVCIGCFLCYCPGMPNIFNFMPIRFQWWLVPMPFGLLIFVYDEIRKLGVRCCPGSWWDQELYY
T1 sequence (P18434 whole entry partner): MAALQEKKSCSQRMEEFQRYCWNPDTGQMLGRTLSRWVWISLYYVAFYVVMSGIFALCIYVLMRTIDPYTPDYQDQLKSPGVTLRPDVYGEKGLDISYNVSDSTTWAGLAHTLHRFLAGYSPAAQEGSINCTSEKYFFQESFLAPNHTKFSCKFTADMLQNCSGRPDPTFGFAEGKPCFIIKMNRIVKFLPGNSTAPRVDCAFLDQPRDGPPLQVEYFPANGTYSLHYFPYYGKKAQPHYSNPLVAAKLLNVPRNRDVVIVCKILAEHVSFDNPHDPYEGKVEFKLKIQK
In the case of `CNC1CCCCc2c1cn(S(=O)(=O)c1cccc(Cl)c1)c2-c1ccccc1F` (stereo not drawn) [Example 145, 2-((3-chlorophenyl)sulfonyl)-1-(2-fluorophenyl)-N-methyl-2,4,5,6,7,8-hexahydrocyclohepta[c]pyrrol-4-amine], half-maximal inhibition (IC50) required 2200 nM.

`CNC1CCc2c1cn(S(=O)(=O)c1ccc(-c3ccccc3)cc1)c2-c1ccccc1F` (stereo not drawn) [Example 62, 2-([1,1′-biphenyl]-4-ylsulfonyl)-1-(2-fluorophenyl)-N-methyl-2,4,5,6-tetrahydrocyclopenta[c]pyrrol-4-amine] displayed an IC50 of 8750 nM. This IC50 lies about 4-fold higher than the previous one.

`CNC1CCCc2c1cn(S(=O)(=O)c1cccc(F)c1)c2-c1ccccc1F` (stereo not drawn) [Example 120, 1-(2-fluorophenyl)-2-((3-fluorophenyl)sulfonyl)-N-methyl-4,5,6,7-tetrahydro-2H-isoindole-4-amine] gave an IC50 of 1500 nM.

In turn, `CNC1CCc2c1cn(S(=O)(=O)c1cccc(Cl)c1)c2-c1ccc(O)cc1` (stereo not drawn) [Example 12, 4-(2-((3-chlorophenyl)sulfonyl)-4-(methylamino)-2,4,5,6-tetrahydrocyclopenta[c]pyrrol-1-yl)phenol] had a concentration for half-maximal inhibition (IC50) of 470 nM.

Compound `CNC1CCc2c1cn(S(=O)(=O)c1ccccc1)c2-c1ccccc1F` (stereo not drawn) [Example 43, 1-(2-fluorophenyl)-N-methyl-2-(phenylsulfonyl)-2,4,5,6-tetrahydrocyclopenta[c]pyrrol-4-amine] registered an IC50 of 430 nM.

With `CNC1CCc2c1cn(S(=O)(=O)c1ccc(OC)nc1Cl)c2-c1ccccc1F` (stereo not drawn) [Example 98, 2-((2-chloro-6-methoxypyridin-3-yl)sulfonyl)-1-(2-fluorophenyl)-N-methyl-2,4,5,6-tetrahydrocyclopenta[c]pyrrol-4-amine], the concentration for half-maximal inhibition (IC50) amounted to 3620 nM.

With `CNC1CCc2c1cn(S(=O)(=O)c1cccc(Cl)c1)c2-c1cscc1C` (stereo not drawn) [Example 34, 2-((3-chlorophenyl)sulfonyl)-N-methyl-1-(4-methylthiophen-3-yl)-2,4,5,6-tetrahydrocyclopenta[c]pyrrol-4-amine], the half-inhibitory concentration (IC50) was 690 nM.

Compound `CNC1CC(C)(C)c2c1cn(S(=O)(=O)c1cccnc1)c2-c1ccccc1F` (stereo not drawn) [Example 105, 1-(2-fluorophenyl)-N,6,6-trimethyl-2-(pyridin-3-ylsulfonyl)-2,4,5,6-tetrahydrocyclopenta[c]pyrrol-4-amine] gave a concentration for half-maximal inhibition (IC50) of 8500 nM.

In turn, `CNC1CCCc2c1cn(S(=O)(=O)c1cccc(OC)c1)c2-c1ccccc1F` (stereo not drawn) [Example 122, 1-(2-fluorophenyl)-2-((3-methoxyphenyl)sulfonyl)-N-methyl-4,5,6,7-tetrahydro-2H-isoindole-4-amine] returned a concentration for half-maximal inhibition (IC50) of 1500 nM.

The compound `CNC1CCc2c1cn(S(=O)(=O)c1cccc(Cl)c1Cl)c2-c1ccccc1F` (stereo not drawn) [Example 64, 2-((2,3-dichlorophenyl)sulfonyl)-1-(2-fluorophenyl)-N-methyl-2,4,5,6-tetrahydrocyclopenta[c]pyrrol-4-amine] gave an IC50 of 840 nM.

On to `CNC1CCc2c1cn(S(=O)(=O)c1ccccc1Cl)c2-c1ccc(F)cc1C` (stereo not drawn) [Example 49, 2-((2-chlorophenyl)sulfonyl)-1-(4-fluoro-2-methylphenyl)-N-methyl-2,4,5,6-tetrahydrocyclopenta[c]pyrrol-4-amine], for which the IC50 was 2170 nM.

For the compound `CNC1CCc2c1cn(S(=O)(=O)c1ccccc1Cl)c2-c1cc(Cl)ccc1Cl` (stereo not drawn) [Example 50, 2-((2-chlorophenyl)sulfonyl)-1-(2,5-dichlorophenyl)-N-methyl-2,4,5,6-tetrahydrocyclopenta[c]pyrrol-4-amine], half-maximal inhibition (IC50) required 1050 nM.

As for `CNC1CCc2c1cn(S(=O)(=O)c1cc(Cl)c(Cl)cc1Cl)c2-c1ccccc1F` (stereo not drawn) [Example 84, 1-(2-fluorophenyl)-N-methyl-2-((2,4,5-trichlorophenyl)sulfonyl)-2,4,5,6-tetrahydrocyclopenta[c]pyrrol-4-amine], the IC50 is 390 nM.

`CNC1CCc2c1cn(S(=O)(=O)c1cccc(Cl)c1)c2-c1ccc(F)c(F)c1` (stereo not drawn) [Example 24, 2-((3-chlorophenyl)sulfonyl)-1-(3,4-difluorophenyl)-N-methyl-2,4,5,6-tetrahydrocyclopenta[c]pyrrol-4-amine] showed a concentration for half-maximal inhibition (IC50) of 480 nM.

`CNC1CCc2c1cn(S(=O)(=O)c1cccc(Cl)c1)c2-c1cccc(F)c1` (stereo not drawn) [Example 9, 2-((3-chlorophenyl)sulfonyl)-1-(3-fluorophenyl)-N-methyl-2,4,5,6-tetrahydrocyclopenta[c]pyrrol-4-amine] returned a concentration for half-maximal inhibition (IC50) of 830 nM.

Compound `CNC1CCc2c1cn(S(=O)(=O)c1cc(Cl)cc(Cl)c1)c2-c1ccc(C)cc1F` (stereo not drawn) [Example 78, 2-((3,5-dichlorophenyl)sulfonyl)-1-(2-fluoro-4-methylphenyl)-N-methyl-2,4,5,6-tetrahydrocyclopenta[c]pyrrol-4-amine] came in with an IC50 of 460 nM. This IC50 is about 1.8-fold lower than that of the compound before.

As to `CNC1CCc2c1cn(S(=O)(=O)c1c(Cl)cc(Cl)cc1Cl)c2-c1ccccc1F` (stereo not drawn) [Example 85, 1-(2-fluorophenyl)-N-methyl-2-((2,4,6-trichlorophenyl)sulfonyl)-2,4,5,6-tetrahydrocyclopenta[c]pyrrol-4-amine], the IC50 was 2190 nM.

The compound `CNC1CCc2c1cn(S(=O)(=O)c1cccc(Cl)c1)c2-c1ccc(N2CCOCC2)nc1` (stereo not drawn) [Example 41, 2-((3-chlorophenyl)sulfonyl)-N-methyl-1-(6-morpholinopyridin-3-yl)-2,4,5,6-tetrahydrocyclopenta[c]pyrrol-4-amine] came in with an IC50 of 3880 nM.

`Cc1cccc(S(=O)(=O)n2cc3c(c2-c2ccccc2F)CCCC3N(C)C)c1` (stereo not drawn) [Example 137, 1-(2-fluorophenyl)-N,N-dimethyl-2-(m-tolylsulfonyl)-4,5,6,7-tetrahydro-2H-isoindole-4-amine] registered a half-inhibitory concentration (IC50) of 6000 nM.

`CNC1CCCc2c1cn(S(=O)(=O)c1cccc(Cl)c1)c2-c1ccncc1` (stereo not drawn) [Example 128, 2-((3-chlorophenyl)sulfonyl)-N-methyl-1-(pyridin-4-yl)-4,5,6,7-tetrahydro-2H-isoindole-4-amine] gave an IC50 of 50000 nM. This IC50 is about 8.3-fold higher than that of the compound before.

`CNC1CCCCc2c1cn(S(=O)(=O)c1cccnc1)c2-c1ccccc1F` (stereo not drawn) [Example 146, 1-(2-fluorophenyl)-N-methyl-2-(pyridin-3-ylsulfonyl)-2,4,5,6,7,8-hexahydrocyclohepta[c]pyrrol-4-amine] returned a 50% inhibitory concentration (IC50) of 4500 nM.

Compound `CN(C)C1CCCc2c1cn(S(=O)(=O)c1cccc(OC(F)F)c1)c2-c1ccccc1F` (stereo not drawn) [Example 142, 2-((3-(difluoromethoxy)phenyl)sulfonyl)-1-(2-fluorophenyl)-N,N-dimethyl-4,5,6,7-tetrahydro-2H-isoindole-4-amine] yielded an IC50 of 8000 nM.

Take `CNC1CCc2c1cn(S(=O)(=O)c1cccc(Cl)c1)c2-c1ccc(N2CCCC2)nc1` (stereo not drawn) [Example 40]: the IC50 was 7690 nM.

As to `CNC1CCc2c1cn(C(=O)c1cccc(Cl)c1)c2-c1ccc(F)cc1F` (stereo not drawn) [Example 114, (3-chlorophenyl)(1-(2,4-difluorophenyl)-4-(methylamino)-5,6-dihydrocyclopenta[c]pyrrol-2(4H)-yl)methanone], the concentration for half-maximal inhibition (IC50) worked out at 30100 nM. Compared with the last compound, the IC50 is about 3.9-fold higher.

In the case of `CNC1CCc2c1cn(S(=O)(=O)c1ccc(F)cc1Cl)c2-c1ccccc1F` (stereo not drawn) [Example 66, 2-((2-chloro-4-fluorophenyl)sulfonyl)-1-(2-fluorophenyl)-N-methyl-2,4,5,6-tetrahydrocyclopenta[c]pyrrol-4-amine], the IC50 was 500 nM.

Take `CNC1CCc2c1cn(S(=O)(=O)c1ccc(OC(F)(F)F)cc1Cl)c2-c1ccccc1F` (stereo not drawn) [Example 68, 2-((2-chloro-4-(trifluoromethoxy)phenyl)sulfonyl)-1-(2-fluorophenyl)-N-methyl-2,4,5,6-tetrahydrocyclopenta[c]pyrrol-4-amine]: the half-maximal inhibitory concentration (IC50) was found to be 840 nM.

The compound `CNC1CCc2c1cn(S(=O)(=O)c1cccc(Cl)c1)c2-c1cccnc1` (stereo not drawn) [Example 37, 2-((3-chlorophenyl)sulfonyl)-N-methyl-1-(pyridin-3-yl)-2,4,5,6-tetrahydrocyclopenta[c]pyrrol-4-amine] had an IC50 of 1490 nM.

Compound `CNC1CCc2c1cn(S(=O)(=O)c1cccc(Cl)c1)c2-c1cc(Cl)c(C)cc1F` (stereo not drawn) [Example 26, 1-(5-chloro-2-fluoro-4-methylphenyl)-2-((3-chlorophenyl)sulfonyl)-N-methyl-2,4,5,6-tetrahydrocyclopenta[c]pyrrol-4-amine] showed an IC50 of 620 nM. This IC50 is about 2.4-fold lower than that of the compound before.

With `CNC1CCc2c1cn(S(=O)(=O)c1c(Cl)cccc1Cl)c2-c1ccccc1F` (stereo not drawn) [Example 75, 2-((2,6-dichlorophenyl)sulfonyl)-1-(2-fluorophenyl)-N-methyl-2,4,5,6-tetrahydrocyclopenta[c]pyrrol-4-amine], 2140 nM corresponded to half-maximal inhibition (IC50).

`CN(C)C1CCCc2c1cn(S(=O)(=O)c1cccc(C(F)(F)F)c1)c2-c1ccccc1F` (stereo not drawn) [Example 139, 1-(2-fluorophenyl)-N,N-dimethyl-2-((3-(trifluoromethyl)phenyl)sulfonyl)-4,5,6,7-tetrahydro-2H-isoindole-4-amine]: it took 9070 nM to reach half-maximal inhibition (IC50).

The values are drawn from US10039747B2, “Tetrahydrocyclopentapyrrole derivatives and a method for preparing the same” (Daewoong Pharmaceutical Co., Ltd., priority 2013, dated 2018).
